Experimental data: patent US20240261356A1, “COMPOSITION CONTAINING ACANTHOPANAX EXTRACT AND GARCINIA CAMBOGIA EXTRACT OR COMPOUND ISOLATED THEREFROM AS ACTIVE INGREDIENT FOR PREVENTION OR TREATMENT OF LIVER DISEASE” (KOREA RESEARCH INSTITUTE OF BIOSCIENCE AND BIOTECHNOLOGY, priority 2021, published 2024)

Columns and labels:
[1] = test system: non-alcoholic steatohepatitis (NASH) animal models; assay: Fibrosis marker hydroxyproline in liver tissue of NASH animal model; type: in vivo, C57bl/6J mice; conditions: NASH mice, 8 weeks, Chiisanogenin 50 mg/kg
Procedure: (§1) 8-week-old male C57bl/6J mice were fed a NASH-inducing diet (#A06071302 diet) for 8 weeks, and, from the 9th week, single samples (i.e., Garcinia extract, Acanthopanax extract or Chiisanogenin) and a composite sample thereof were administered for 8 weeks, together with NASH dietary feed (#A06071302 diet). To verify the efficacy of each of the Garcinia extract (notified raw material, 60% HCA) and Chiisanogenin or their mixture at each non-clinical administration concentration by using a non-alcoholic steatohepatitis (NASH)-induced animal model, changes of aspartate aminotransferase (AST) and alanine aminotransferase (ALT), which are biomarkers of liver tissue damage, in the serum of the non-alcoholic steatohepatitis (NASH) C57bl/6J mouse models caused by feeding NASH-inducing dietary feed (#A06071302) were observed, and the results are shown in Tables 11 and 12, respectively. In addition, the results of observing changes of hydroxyproline, which is a biomarker of liver fibrosis, in liver tissues are shown in Table 13.

HepG2 cells [2] = assay: Fatty acid-induced intracellular fat accumulation (BODIPY fluorescence) in non-alcoholic fatty liver cell model; type: cell-based, human
Procedure: The human liver-derived HepG2 cell line was purchased from American Type Culture Collection (ATCC, VA, USA). HepG2 cells were cultured at 37° C. in an incubator supplied with 5% carbon dioxide. For the cell culture, MEM (Gibco Cat No. 11095-098) medium containing 10% fetal bovine serum (FBS) and 1% antibiotics (Penicillin-streptomycin, Gibco) was used. HepG2 cells were seeded in a 96-well plate at 1×10^4 cells/well, and, after 24 hours, treated with 150 μM oleic acid (Sodium oleate, Sigma, USA) for 24 hours to increase intracellular fat accumulation. The drug treated group was treated 1 hour before being treated with oleic acid. Upon completion of the experiment, the cells were fixed with 4% formaldehyde for 10 minutes and washed twice with PBS buffer. A solution containing […] (Invitrogen Corporation, NY, USA) was added and cultured at room temperature for 30 minutes. At this time, the final concentration of the fluorescent dye BODIPY was 2 μg/ml. After completion of the reaction, the plate was washed three times with PBS buffer, and, when only the minimum amount of PBS remained, the fluorescence was quantified by using a SpectraMax M4 microplate reader (Molecular Devices, USA). At this time, the excitation wavelength was 485 nm, and the emission was 525 nm. The experiment was performed by blocking light with aluminum foil to allow in as little light as possible.

HepG2 cells [3] = assay: Cell viability (CCK-8) of fatty acid-induced non-alcoholic fatty liver cell model; type: cell-based, human; conditions: Table 6, Garcinia extract 0 + Chiisanogenin 6 μg/ml
Procedure: The human liver-derived HepG2 cell line was purchased from American Type Culture Collection (ATCC, VA, USA). HepG2 cells were cultured at 37° C. in an incubator supplied with 5% carbon dioxide. For the cell culture, MEM (Gibco Cat No. 11095-098) medium containing 10% fetal bovine serum (FBS) and 1% antibiotics (Penicillin-streptomycin, Gibco) was used. HepG2 cells were seeded in a 96-well plate at 1×10^4 cells/well, and, after 24 hours, treated with 150 μM oleic acid (Sodium oleate, Sigma, USA) for 24 hours to increase intracellular fat accumulation. The drug treated group was treated 1 hour before being treated with oleic acid. […] After completion of the reaction, the plate was washed three times with PBS buffer, and, when only the minimum amount of PBS remained, the fluorescence was quantified by using a SpectraMax M4 microplate reader (Molecular Devices, USA). […]
In the experimental conditions of the present invention, cell viability was determined by mixing 90 μl of medium with 10 μl of CCK-8 solution, adding 100 μl per well and reacting the mixture for at least 30 minutes to 1 hour, followed by measurement of the absorbance at 450 nm, as described in the CCK-8 (Dojindo) kit. The cell viability was calculated according to Equation 1 below, taking the negative control as 100%, and the results are shown in Tables 8 and 9 below.

[4] = test system: non-alcoholic steatohepatitis (NASH) animal models; assay: AST in serum of non-alcoholic steatohepatitis (NASH) animal model; type: in vivo, C57bl/6J mice; conditions: NASH mice, 8 weeks, Chiisanogenin 50 mg/kg
Procedure: as §1

[5] = test system: non-alcoholic steatohepatitis (NASH) animal models; assay: ALT in serum of non-alcoholic steatohepatitis (NASH) animal model; type: in vivo, C57bl/6J mice; conditions: NASH mice, 8 weeks, Chiisanogenin 50 mg/kg
Procedure: as §1

For `C=C(C)[C@@H]1CC[C@]2(C(=O)O)CC[C@]3(C)[C@H](C[C@H]4OC(=O)C[C@@H](O)[C@]5(C)[C@@H]4[C@@]3(C)CC[C@H]5C(=C)C)[C@@H]12` [Chiisanogenin], the “Hydroxyproline in liver tissues (% relative to positive control group, mean ± deviation)” value [1] was 69 ± 28%, the “Inhibition rate (%, mean ± deviation)” value ([1]; liver hydroxyproline) was 26 ± 11.9% and the inhibition at 6 µg/mL (HepG2 cells [2]; Homo sapiens, HepG2, Table 4, fat accumulation, Garcinia extract 0 + Chiisanogenin 6 μg/ml, read-out: Inhibition rate (%)) was 80%. For the same molecule, the “TG (% relative to positive control group, mean ± deviation)” value (HepG2 cells [2]; Table 4, Garcinia extract 0 + Chiisanogenin 6 μg/ml) was 64 ± 7.9 %, the “Cell viability (%, mean ± deviation)” value (HepG2 cells [3]) was 105 ± 13.7% and the “AST in serum (% relative to positive control group, mean ± deviation)” value [4] was 97 ± 15.4%. For the same molecule, the “Inhibition rate (%, mean ± deviation)” value ([4]; serum AST) was 4 ± 19.8%, the “ALT in serum (% relative to positive control group, mean ± deviation)” value [5] was 89 ± 14.6% and the “Inhibition rate (%, mean ± deviation)” value ([5]; serum ALT) was 12 ± 5.1%.
